Source: ChEMBL document CHEMBL1909589, “5-(2'-Pyridyl)-2-aminothiazoles: alkyl amino sulfonamides and sulfamides as potent NPY(5) antagonists” (Bioorg Med Chem Lett, 2011)

Assays:
[1] = Volume of distribution at steady state in Sprague-Dawley rat at 2 mg/kg, po and 1 mg/kg, iv by HPLC method; assay type: ADME, organism-based; conditions: in vivo, read-out: Vdss
[2] = Absolute oral bioavailability in Sprague-Dawley rat at 2 mg/kg by HPLC method; assay type: ADME, organism-based; conditions: in vivo
Liver microsomes [3] = assay: Intrinsic clearance in rat liver microsomes; assay type: ADME, Microsome
[4] = Plasma concentration in Sprague-Dawley rat at 3 mg/kg, po after 1 hr; assay type: ADME, organism-based; set-up: dose 3 mg/kg, route oral
[5] = Plasma concentration in Sprague-Dawley rat at 10 mg/kg, po after 4 hrs; assay type: ADME, organism-based; set-up: dose 10 mg/kg, route oral
[6] = Drug uptake in Sprague-Dawley rat brain at 10 mg/kg, po after 4 hrs; assay type: ADME, organism-based; set-up: dose 10 mg/kg, route oral; conditions: read-out: Drug uptake
[7] = Plasma clearance in Sprague-Dawley rat at 2 mg/kg, po and 1 mg/kg, iv by HPLC method; assay type: ADME, organism-based
[8] = Drug uptake in Sprague-Dawley rat brain at 3 mg/kg, po after 1 hr; assay type: ADME, organism-based; set-up: dose 3 mg/kg, route oral; conditions: read-out: Drug uptake
Liver microsomes [9] = assay: Intrinsic clearance in human liver microsomes; assay type: ADME, Microsome

| SMILES | CL (Liver microsomes [3]) | CL (Liver microsomes [9]) | other results |
| --- | --- | --- | --- |
| CN(C)S(=O)(=O)NCCCCCNc1nc(-c2ccccn2)cs1 | 110 mL/min | 1.8 L/min | Vd [1]: 47 L/kg; bioavailability [2]: 26%; concentration at 1 h [4]: 12 ng/mL; concentration at 4 h [5]: 24 ng/mL; concentration at 4 h [6]: 12 ng/g; clearance [7]: 140 mL/min/kg; concentration at 1 h [8]: 4 ng/g |
| O=S(=O)(NCCCCCNc1nc(-c2ccccn2)cs1)N1CCOCC1 | 44 mL/min | 2.9 L/min | – |
| COCCN(CCOC)S(=O)(=O)NCCCCCNc1nc(-c2ccccn2)cs1 | 150 mL/min | 16 L/min | – |
| CCN(CC)S(=O)(=O)NCCCCCNc1nc(-c2ccccn2)cs1 | 290 mL/min | 27 L/min | – |
| CC1CN(S(=O)(=O)NCCCCCNc2nc(-c3ccccn3)cs2)CC(C)O1 (stereo not given) | 74 mL/min | 11 L/min | – |
| CC(C)S(=O)(=O)NCCCCCNc1nc(-c2ccsc2)cs1 | 87 mL/min | 5.4 L/min | – |
| CN1CCN(S(=O)(=O)NCCCCCNc2nc(-c3ccccn3)cs2)CC1 | 120 mL/min | 2.5 L/min | – |
| Cc1nc(C)c(S(=O)(=O)NCCCCCNc2nc(-c3ccccn3)cs2)s1 | – | 27 L/min | – |
| CC(C)S(=O)(=O)NCCCCCNc1nc(-c2ccccn2)cs1 | 72 mL/min | 2.2 L/min | Vd [1]: 22 L/kg; bioavailability [2]: 49%; clearance [7]: 383 mL/min/kg |
| CS(=O)(=O)NC[C@H]1CC[C@H](Nc2nc3c(s2)CCSc2ccccc2-3)CC1 | 40 mL/min | 2.5 L/min | – |
| CC(C)S(=O)(=O)NCCOCCNc1nc(-c2ccccn2)cs1 | – | 1.1 L/min | – |
